Reference: ChEMBL document CHEMBL3352800, “Structure-guided discovery of 1,3,5-triazine-pyrazole conjugates as antibacterial and antibiofilm agent against pathogens causing human diseases with favorable metabolic fate” (2014)
Values after ≈ are worked out from the molar mass of the structure shown.

Experiments:
Type in all cases: functional
Bacillus subtilis = experiment: Antibacterial activity against Bacillus subtilis NCIM-2063 after 24 hrs by broth dilution method; details: NCIM-2063, 24 h
Bacillus cereus = experiment: Antibacterial activity against Bacillus cereus NCIM-2156 after 24 hrs by broth dilution method; details: NCIM-2156, 24 h
Proteus vulgaris = experiment: Antibacterial activity against Proteus vulgaris NCIM-2027 after 24 hrs by broth dilution method; details: NCIM-2027, 24 h
Pseudomonas aeruginosa = experiment: Antibacterial activity against Pseudomonas aeruginosa NCIM-2036 after 24 hrs by broth dilution method; details: NCIM-2036, 24 h
Staphylococcus aureus [1] = experiment: Antibacterial activity against Staphylococcus aureus NCIM-2079 after 24 hrs by broth dilution method; details: NCIM-2079, 24 h
Escherichia coli = experiment: Antibacterial activity against Escherichia coli NCIM-2065 after 24 hrs by broth dilution method; details: NCIM-2065, 24 h
Staphylococcus aureus [2] = experiment: Antibiofilm activity against Staphylococcus aureus NCIM-2079 after 16 hrs

MIC (Bacillus subtilis) | MIC (Bacillus cereus) | MIC (Proteus vulgaris) | MIC (Pseudomonas aeruginosa) | MIC (Staphylococcus aureus [1]) | MIC (Escherichia coli) | Compound | Activity (Staphylococcus aureus [2])
3.91 µg/mL (≈ 6.05 µM) | 62.5 µg/mL (≈ 96.7 µM) | 15.6 µg/mL (≈ 24.2 µM) | 15.6 µg/mL (≈ 24.2 µM) | 15.6 µg/mL (≈ 24.2 µM) | 15.6 µg/mL (≈ 24.2 µM) | S=C(Nc1nc(Nc2ccc(Cl)cc2)nc(Nc2ccc(Cl)cc2)n1)N1N=C(c2ccccc2)CC1c1ccccc1Cl (configuration not stated) | 31.25 µg/mL
31.2 µg/mL (≈ 46.1 µM) | 125 µg/mL (≈ 184 µM) | 62.5 µg/mL (≈ 92.2 µM) | 62.5 µg/mL (≈ 92.2 µM) | 31.2 µg/mL (≈ 46.1 µM) | 62.5 µg/mL (≈ 92.2 µM) | O=[N+]([O-])c1ccc(C2CC(c3ccccc3)=NN2C(=S)Nc2nc(Nc3cccc([N+](=O)[O-])c3)nc(Nc3cccc([N+](=O)[O-])c3)n2)cc1 (configuration not stated) | 62.5 µg/mL
3.91 µg/mL (≈ 6.05 µM) | 15.6 µg/mL (≈ 24.2 µM) | 15.6 µg/mL (≈ 24.2 µM) | 7.81 µg/mL (≈ 12.1 µM) | 15.6 µg/mL (≈ 24.2 µM) | 7.81 µg/mL (≈ 12.1 µM) | S=C(Nc1nc(Nc2ccc(Cl)cc2)nc(Nc2ccc(Cl)cc2)n1)N1N=C(c2ccccc2)CC1c1ccc(Cl)cc1 (configuration not stated) | 62.5 µg/mL
7.81 µg/mL (≈ 12.8 µM) | 31.2 µg/mL (≈ 51.1 µM) | 15.6 µg/mL (≈ 25.5 µM) | 31.2 µg/mL (≈ 51.1 µM) | 15.6 µg/mL (≈ 25.5 µM) | 31.2 µg/mL (≈ 51.1 µM) | S=C(Nc1nc(Nc2ccc(Cl)cc2)nc(Nc2ccc(Cl)cc2)n1)N1N=C(c2ccccc2)CC1c1ccccc1 (configuration not stated) | 31.25 µg/mL
15.6 µg/mL (≈ 23.8 µM) | 31.2 µg/mL (≈ 47.6 µM) | 62.5 µg/mL (≈ 95.2 µM) | 125 µg/mL (≈ 190 µM) | 62.5 µg/mL (≈ 95.2 µM) | 125 µg/mL (≈ 190 µM) | O=[N+]([O-])c1ccccc1C1CC(c2ccccc2)=NN1C(=S)Nc1nc(Nc2ccc(Cl)cc2)nc(Nc2ccc(Cl)cc2)n1 (configuration not stated) | 125 µg/mL
15.6 µg/mL (≈ 24.7 µM) | 7.81 µg/mL (≈ 12.3 µM) | 7.81 µg/mL (≈ 12.3 µM) | 7.81 µg/mL (≈ 12.3 µM) | 7.81 µg/mL (≈ 12.3 µM) | 7.81 µg/mL (≈ 12.3 µM) | O=[N+]([O-])c1cccc(Nc2nc(NC(=S)N3N=C(c4ccccc4)CC3c3ccccc3)nc(Nc3cccc([N+](=O)[O-])c3)n2)c1 (configuration not stated) | 31.25 µg/mL
1.95 µg/mL (≈ 4.3 µM) | 3.91 µg/mL (≈ 8.62 µM) | 7.81 µg/mL (≈ 17.2 µM) | 3.91 µg/mL (≈ 8.62 µM) | 7.81 µg/mL (≈ 17.2 µM) | 3.91 µg/mL (≈ 8.62 µM) | C=CC1=C(C(=O)O)N2C(=O)[C@@H](NC(=O)/C(=N\OCC(=O)O)c3csc(N)n3)[C@H]2SC1 [CEFIXIME] | –
31.2 µg/mL (≈ 50.1 µM) | 62.5 µg/mL (≈ 100 µM) | 31.2 µg/mL (≈ 50.1 µM) | 31.2 µg/mL (≈ 50.1 µM) | 31.2 µg/mL (≈ 50.1 µM) | 31.2 µg/mL (≈ 50.1 µM) | O=[N+]([O-])c1ccccc1C1CC(c2ccccc2)=NN1C(=S)Nc1nc(Nc2ccc(F)cc2)nc(Nc2ccc(F)cc2)n1 (configuration not stated) | 31.25 µg/mL
– | – | – | – | – | – | CN[C@H](CC(C)C)C(=O)N[C@H]1C(=O)N[C@@H](CC(N)=O)C(=O)N[C@H]2C(=O)N[C@H]3C(=O)N[C@H](C(=O)N[C@H](C(=O)O)c4cc(O)cc(O)c4-c4cc3ccc4O)[C@H](O)c3ccc(c(Cl)c3)Oc3cc2cc(c3O[C@@H]2O[C@H](CO)[C@@H](O)[C@H](O)[C@H]2O[C@H]2C[C@](C)(N)[C@H](O)[C@H](C)O2)Oc2ccc(cc2Cl)[C@H]1O [VANCOMYCIN] | 3.91 µg/mL
62.5 µg/mL (≈ 92.2 µM) | 62.5 µg/mL (≈ 92.2 µM) | 62.5 µg/mL (≈ 92.2 µM) | 125 µg/mL (≈ 184 µM) | 15.6 µg/mL (≈ 23 µM) | 125 µg/mL (≈ 184 µM) | O=[N+]([O-])c1cccc(Nc2nc(NC(=S)N3N=C(c4ccccc4)CC3c3ccccc3[N+](=O)[O-])nc(Nc3cccc([N+](=O)[O-])c3)n2)c1 (configuration not stated) | 125 µg/mL
15.6 µg/mL (≈ 25 µM) | 31.2 µg/mL (≈ 50.1 µM) | 62.5 µg/mL (≈ 100 µM) | 31.2 µg/mL (≈ 50.1 µM) | 31.2 µg/mL (≈ 50.1 µM) | 31.2 µg/mL (≈ 50.1 µM) | O=[N+]([O-])c1ccc(C2CC(c3ccccc3)=NN2C(=S)Nc2nc(Nc3ccc(F)cc3)nc(Nc3ccc(F)cc3)n2)cc1 (configuration not stated) | 62.5 µg/mL
15.6 µg/mL (≈ 23.4 µM) | 15.6 µg/mL (≈ 23.4 µM) | 31.2 µg/mL (≈ 46.8 µM) | 15.6 µg/mL (≈ 23.4 µM) | 15.6 µg/mL (≈ 23.4 µM) | 15.6 µg/mL (≈ 23.4 µM) | O=[N+]([O-])c1cccc(Nc2nc(NC(=S)N3N=C(c4ccccc4)CC3c3ccccc3Cl)nc(Nc3cccc([N+](=O)[O-])c3)n2)c1 (configuration not stated) | 62.5 µg/mL
7.81 µg/mL (≈ 11.7 µM) | 7.81 µg/mL (≈ 11.7 µM) | 15.6 µg/mL (≈ 23.4 µM) | 31.2 µg/mL (≈ 46.8 µM) | 15.6 µg/mL (≈ 23.4 µM) | 31.2 µg/mL (≈ 46.8 µM) | O=[N+]([O-])c1cccc(Nc2nc(NC(=S)N3N=C(c4ccccc4)CC3c3ccc(Cl)cc3)nc(Nc3cccc([N+](=O)[O-])c3)n2)c1 (configuration not stated) | 15.62 µg/mL
7.81 µg/mL (≈ 13.5 µM) | 3.91 µg/mL (≈ 6.76 µM) | 15.6 µg/mL (≈ 27 µM) | 15.6 µg/mL (≈ 27 µM) | 7.81 µg/mL (≈ 13.5 µM) | 15.6 µg/mL (≈ 27 µM) | Fc1ccc(Nc2nc(NC(=S)N3N=C(c4ccccc4)CC3c3ccccc3)nc(Nc3ccc(F)cc3)n2)cc1 (configuration not stated) | 15.62 µg/mL
7.81 µg/mL (≈ 12.7 µM) | 15.6 µg/mL (≈ 25.5 µM) | 7.81 µg/mL (≈ 12.7 µM) | 15.6 µg/mL (≈ 25.5 µM) | 15.6 µg/mL (≈ 25.5 µM) | 15.6 µg/mL (≈ 25.5 µM) | Fc1ccc(Nc2nc(NC(=S)N3N=C(c4ccccc4)CC3c3ccccc3Cl)nc(Nc3ccc(F)cc3)n2)cc1 (configuration not stated) | 62.5 µg/mL
31.2 µg/mL (≈ 47.6 µM) | 125 µg/mL (≈ 190 µM) | 62.5 µg/mL (≈ 95.2 µM) | 62.5 µg/mL (≈ 95.2 µM) | 125 µg/mL (≈ 190 µM) | 62.5 µg/mL (≈ 95.2 µM) | O=[N+]([O-])c1ccc(C2CC(c3ccccc3)=NN2C(=S)Nc2nc(Nc3ccc(Cl)cc3)nc(Nc3ccc(Cl)cc3)n2)cc1 (configuration not stated) | 125 µg/mL
3.91 µg/mL (≈ 6.38 µM) | 7.81 µg/mL (≈ 12.7 µM) | 15.6 µg/mL (≈ 25.5 µM) | 7.81 µg/mL (≈ 12.7 µM) | 31.2 µg/mL (≈ 51 µM) | 7.81 µg/mL (≈ 12.7 µM) | Fc1ccc(Nc2nc(NC(=S)N3N=C(c4ccccc4)CC3c3ccc(Cl)cc3)nc(Nc3ccc(F)cc3)n2)cc1 (configuration not stated) | 31.25 µg/mL
